From patent US10328114B2, “Lung injury repair compositions and methods” (University of Iowa Research Foundation, priority 2015, dated 2019)
Entries after “also recorded” stand apart in the source; their conditions may differ. Read-outs that look alike come from different tables or passages of the source. *: point of attachment. Myristoyl = CCCCCCCCCCCCCC(=O)*

Assays:
[1] = system: bleomycin induced ALI mouse model; test: In vivo lung μCT scan in bleomycin ALI model; conditions: week 6
Method: (§1) Animal protocols were approved by the Institutional Animal Care and Use Committee at the University of Iowa. C57BL/6 mice (Jackson Laboratories, Bar Harbor, Me.) were anesthetized followed by intratracheal instillation of: (A) Control (Ctrl): 1 μl of DMSO (Sigma, St. Louis, Mo.) plus 49 μl of PBS; (B) Bleomycin (Bleo): 1 μl of DMSO plus 49 μl of bleomycin (APP pharmaceuticals, LLC Schaumburg, Ill.) dissolved in PBS (4 U/kg); (C) Bleomycin/PKCζi (Bleo/PKCζi): 1 μg of PKCζi (Calbiochem EMD Biosciences, San Diego, Calif.) solubilized in 1 μl of DMSO plus 49 μl of bleomycin (4 U/Kg) dissolved in PBS (Calbiochem EMD Biosciences, San Diego, Calif.). After this treatment, all mice were instilled (50 μl) every 72 hours with 1 μl of DMSO plus 49 μl of PBS in the Ctrl and Bleo group or with 1 μg of PKCζi dissolved in 1 μl of DMSO plus 49 μl of PBS in the Bleo/PKCζi group for the duration of the experiment. Mice were treated for up to 6 weeks (FIG. 1A). All conditions had between 4 to 6 animals.
High resolution scanning coupled to a computer controlled respirator to reduce ventilation motion artifacts was performed as described previously (27).

[2] = system: BALF isolated cells from bleomycin treated mice; test: ROS production (extracellular H2O2) of BALF cells, p-hydroxyphenylacetate method; type: in vivo, mouse; conditions: week 1 post initial instillation
Method: as §1
BALF cells from week 1 post initial instillation were determined by the p-hydroxyphenylacetate method as reported previously (25).

[3] = system: isolated rat primary alveolar epithelial cells; conditions: hypoxia and diesel exhaust particle in vitro lung injury models, cited from earlier work
[4] = system: surfactant protein C (SPC); test: Surfactant protein C (SPC) by Western blot in bleomycin ALI model; type: in vivo, mouse
Method: (§2) (4) PKC-ζi partially preserves lung compliance. Briefly, trachea was surgically exposed and tracheal cannula (18 gauge, Angiocath, Becton Dickinson, Sandy, Utah, USA) placed and secure in the lumen. The mice were paralyzed using intraperitoneal rocuronium (1 mg/Kg) to prevent spontaneous breathing and mechanically ventilated on a computer controlled respirator (flexiVent, SCIREQ Inc., Montreal, Canada). The ventilator was set up to deliver tidal volume 6 ml/kg for 10 minutes; respiratory rate of 150 breaths/min; 3 cmH2O positive end expiratory pressure (PEEP). The compliance was determined using the maneuver Pressure-volume ramp volume regulated (PVrV) to calculate the Quasi-static compliance. […] Since lung compliance is the product of an intact epithelial barrier and surfactant production, and PKCζ have been reported to be involved in surfactant production (Gobran et al., (1998). “PKCζ isoforms and other signaling proteins involved in surfactant secretion in developing rat type II cells.” Am J Physiol 274(6 Pt 1): L901-907), the inventors decided to examine by Western blot analysis total amount of SPC in BALF. […] Therefore, our results are likely due to preservation of the alveolar epithelial barrier.
Animal protocols were approved by the Institutional Animal Care and Use Committee at the University of Iowa. […]

[5] = system: bleomycin induced ALI mouse model; test: Lung collagen deposition (hydroxyproline assay, Masson's trichrome) in bleomycin ALI model; type: in vivo; conditions: for lung fibrosis / lung injury resolution, biochemical and histological evidence: active TGF β, hydroxyproline, Masson staining
Method: as §1
The collagen content in the lung homogenates was determined with a hydroxyproline assay, as described previously (26). In addition, lung collagen deposition was examined in lung sections stained with Masson's trichrome.

[6] = system: active transforming growth factor beta (TGFβ); test: Active TGFβ ELISA in bleomycin ALI model; type: in vivo, mouse
Method: as §1
Mouse IL-1β and active transforming growth factor beta (TGFβ) were measured using an ELISA from R&D Biosystems (Minneapolis, Minn.).

[7] = system: bleomycin induced ALI mouse model; test: Lung compliance (flexiVent) in bleomycin ALI model; type: in vivo; conditions: for lung compliance, PKC-ζi instilled post injury: measured at one week; for lung compliance: week 1 post injury, PKCζi given with bleomycin and every 72 hours
Method: as §2
(7) Treatment of mice with PKC-ζi after initial injury continues to be effective in preserving lung compliance. Since the majority of clinical scenarios involve the treatment of patients with established ALI, we set out to examine the effect of PKC-ζi post injury by instilling 6 and 24 hours after bleomycin instillation. Lung compliance was measured at one week.
as §1
Mice were anesthetized, paralyzed and lung function assessed with the flexiVent Legacy. (SCIREQ Inc., Montreal, Canada).

[8] = system: bleomycin induced ALI mouse model; test: BALF total protein concentration (alveolar-capillary permeability), Bradford assay; type: in vivo; conditions: week 1 post injury
Method: as §1
Bronchoalveolar lavage was performed as previously described (18). Total cell count was examined by hemocytometer and the percent of neutrophils cells in the bronchoalveolar lavage fluid (BALF) by cytospin slides stained with Wright's-Giemsa. Total protein concentration was measured by Bradford assay (Bio-Rad, Hercules, Calif.).

[9] = week 3 post injury, listed as PKC-ζi

For “N-Myristoyl-Ser-Ile-Tyr-Arg-Arg-Gly-Ala-Arg-Arg-Trp-Arg-Lys-Leu-OH (Myristoyl-SIYRRGARRWRKL-OH; SMILES CCCCCCCCCCCCCC(=O)N[C@@H](CO)C(=O)N[C@H](C(=O)N[C@@H](Cc1ccc(O)cc1)C(=O)N[C@@H](CCCNC(=N)N)C(=O)N[C@@H](CCCNC(=N)N)C(=O)NCC(=O)N[C@@H](C)C(=O)N[C@@H](CCCNC(=N)N)C(=O)N[C@@H](CCCNC(=N)N)C(=O)N[C@@H](Cc1c[nH]c2ccccc12)C(=O)N[C@@H](CCCNC(=N)N)C(=O)N[C@@H](CCCCN)C(=O)N[C@@H](CC(C)C)C(=O)O)[C@@H](C)CC) [PKCζi]”, the “lung injury on μCT” value [1] was “confirmed lung injury resolution; also recorded: complete resolution in the PKCζi group at week 6”, the “lung injury on μCT” value ([1]; listed as PKC-ζi) was “confirmed lung injury resolution” and the “ROS production / extracellular hydrogen peroxide (H2O2) of BALF cells” value [2] was “does not reduce extracellular hydrogen peroxide (H2O2) in BALF isolated cells from bleomycin treated mice lung”. For the same substance, the “ROS production / extracellular hydrogen peroxide (H2O2) of BALF cells” value ([2]; listed as PKC-ζi) was “did not prevent ROS production in bleomycin treated mice”, the “alveolar epithelial barrier integrity” value [3] was “prevents the disruption of the epithelial barrier in isolated rat primary alveolar epithelial cells” and the “alveolar epithelial barrier integrity” value ([3]; listed as PKC-ζ inhibitor) was “preserves the alveolar epithelial barrier”. For the same substance, the “total amount of SPC in BALF (Western blot)” value ([4]; Example 1) was “did not prevent a reduction in SPC”, the “total SPC in whole lungs (Western blot)” value ([4]; week 1, Example 2) was “did not prevent the reduction in SPC caused by bleomycin injury; also recorded: does not prevent total SPC decrease in the lungs” and the “collagen lung deposition by Masson's staining” value ([5]; FIG. 4C, printed as week 3) was “decreased collagen lung deposition by masson's staining at week 3 compared to bleomycin group”. For the same substance, the “hydroxyproline content, PKCζi only during the first week” value ([5]; measured at week 6) was “increase hydroxyproline content similar to Bleomycin alone group at week 6”, the “histological lung collagen deposition” value ([5]; three weeks after bleomycin, Example 1) was “histological evidence of lung collagen deposition” and the lung hydroxyproline concentration ([5]; week 3 post injury) was “no difference in active TGF β and hydroxyproline concentrations compared to bleomycin group; also recorded: does not decrease hydroxyproline concentration”. For the same substance, the lung hydroxyproline concentration [5, 9] was “high concentrations of hydroxyproline”, the “lung fibrosis / lung injury resolution, biochemical and histological evidence” value ([5]; week 6) was “demonstrated lung injury resolution in the PKCζi treated group” and the “lung fibrosis / lung injury resolution, biochemical and histological evidence” value ([5]; week 6, listed as PKC-ζi) was “total resolution of lung fibrosis in the PKC-ζi treated group”. The lung hydroxyproline concentration ([5]; week 6, continuous PKCζi treatment) was “decreased hydroxyproline concentration at week 6 compare to bleomycin group”, the “active TGF β” value ([6]; week 3 post injury) was “no difference in active TGF β and hydroxyproline concentrations compared to bleomycin group; also recorded: does not prevent bleomycin induced TGF β activation” and the “active TGF β” value [6, 9] was “significantly elevated in both groups”. For the same substance, the “active TGF β” value ([6]; week 6) was “prevents bleomycin induced active TGF β at week 6”, the “lung compliance, PKC-ζi instilled post injury” value ([7]; instillation 6 hours after bleomycin) was “prevented the decrease in lung compliance” and the “lung compliance, PKC-ζi instilled post injury” value ([7]; instillation 24 hours after bleomycin) was “no protective effect”. The lung compliance [7] was “partial but statistically significant prevention in the lung compliance decrease compared to bleomycin alone group; also recorded: preserves lung compliance compare to bleomycin”, the lung compliance ([7]; listed as PKC-ζi) was “partially preserve lung compliance compared to control” and the BALF protein concentration [8] was “prevented the increase in mice BALF protein concentration compared to bleomycin group; also recorded: prevents increase in BALF protein concentration in bleomycin treated mice”. For the same substance, the BALF protein concentration ([8]; listed as PKC-ζ inhibitor) was “prevents increased protein content in BAL in bleomycin induced ALI”.
